{"source": "patent US11072812B2", "about": "“Substrates for covalent tethering of proteins to functional groups or solid surfaces” (PROMEGA CORPORATION, priority 2013, dated 2021)", "key": {"HaloTag® protein [1]": {"tested_on": "HaloTag® protein", "assay": "Binding efficiency/kinetics to HaloTag protein in cell lysate (chase with fluorescent HaloTag ligand, SDS-PAGE)", "conditions": "1 μM; for binding efficiency / labeling kinetics to HaloTag protein in lysate: methotrexate-chloroalkane conjugates, 0-60 min (O4 = PBI-4849, O6 = PBI-4850)", "procedure": "a) Binding efficiency to HaloTag® protein in lysate was measured by adding the methotrexate-chloroalkane conjugates to lysate from cells expressing a HaloTag® protein to a final concentration of 1 μM. Following 0-60 mins of binding, the reactions were chased with 1 μM fluorescent HaloTag® ligand. Unbound HaloTag® protein was detected through binding to the fluorescent HaloTag® ligand followed by analysis on SDS-PAGE gel and detection on a fluorescent gel scanner.\na) Binding efficiency to HaloTag® protein in lysate was measured by adding the dexamethasone-chloroalkane conjugates to lysate from cells expressing a HaloTag® protein to a final concentration of 1 μM. Following 0-60 mins of binding, the reactions were chased with 1 μM fluorescent HaloTag® ligand. Unbound HaloTag® protein was detected through binding to the fluorescent HaloTag ligand followed by analysis on SDS-PAGE gel and detection on a fluorescent gel scanner.\na) Binding kinetics to HaloTag® protein in cell lysate was measured by adding the modified BIRB796-chloroalkane conjugates to lysate from cells expressing a HaloTag® protein at a final concentration of 1 μM. After 0-60 min of binding, the reactions were chased with 1 μM fluorescent HaloTag® ligand (Promega Corporation). Unbound HaloTag® protein was detected through binding to the fluorescent HaloTag® ligand followed by analysis on SDS-PAGE and detection on a fluorescent gel scanner.\nFollowing 0-60 min of binding, the reactions were chased with 1 μM fluorescent HaloTag® ligand. Unbound HaloTag® protein was detected through binding to the fluorescent HaloTag® ligand followed by analysis on SDS-PAGE and detection on a fluorescent gel scanner.\na) Binding kinetics to HaloTag® protein in cell lysate was measured by adding the dasatinib-chloroalkane conjugates to lysate (final concentration of 1 μM) from cells expressing a HaloTag® protein. Following 0-60 min of binding, the reactions were chased with 1 μM fluorescent HaloTag® ligand. Unbound HaloTag® protein was detected through binding to the fluorescent HaloTag® ligand followed by analysis on SDS-PAGE and detection on a fluorescent gel scanner."}, "HaloTag® protein [2]": {"tested_on": "HaloTag® protein", "assay": "Binding efficiency/kinetics to HaloTag protein in cells (cell permeability; chase with fluorescent HaloTag ligand, SDS-PAGE)", "type": "cell-based", "conditions": "10 μM", "procedure": "b) Binding efficiency to HaloTag® protein in cells was measured by adding the methotrexate-chloroalkane conjugates to cells expressing a HaloTag® protein to a final concentration of 10 μM. Following 0-120 mins of binding, the reactions were chased with 5 μM fluorescent HaloTag® ligand. Unbound HaloTag® protein was detected through binding to the fluorescent HaloTag® ligand followed by cell lysis, analysis on a SDS-PAGE gel and detection on a fluorescent gel scanner.\nb) Binding efficiency to HaloTag® protein in cells was measured by adding the dexamethasone-chloroalkane conjugates to cells expressing a HaloTag® protein to a final concentration of 10 μM. Following 0-60 mins of binding, the reaction was chased with 5 μM fluorescent HaloTag ligand. Unbound HaloTag® protein was detected through binding to the fluorescent HaloTag® ligand followed by cell lysis, analysis on SDS-PAGE gel and detection on a fluorescent gel scanner.\nb) Binding kinetics to HaloTag® protein in cells was measured by adding the modified BIRB796-chloroalkane conjugates to cells expressing a HaloTag® protein at a final concentration of 10 μM. Following 0-60 min of binding, the reactions were chased with 5 μM fluorescent HaloTag® ligand. Unbound HaloTag® protein was detected through binding to the fluorescent HaloTag® ligand followed by cell lysis, analysis on SDS-PAGE and detection on a fluorescent gel scanner.\nFollowing 0-180 min of binding, the reactions were chased with 5 μM fluorescent HaloTag® ligand. Unbound HaloTag® protein was detected through binding to the fluorescent HaloTag® ligand followed by cell lysis, analysis on SDS-PAGE and detection on a fluorescent gel scanner.\nb) Binding kinetics to HaloTag® protein in cells was measured by adding the dasatinib-chloroalkane conjugates (final concentration of 10 μM) to cells expressing a HaloTag protein which localized to the cytoplasm or the nucleus. Following 0-90 min of binding, the reactions were chased with 5 μM fluorescent HaloTag® ligand. Unbound HaloTag® protein was detected through binding to the fluorescent HaloTag® ligand followed by cell lysis, analysis on SDS-PAGE and detection on a fluorescent gel scanner."}, "[3]": {"target": "T1, NanoLuc-DHFR fusion protein (Homo sapiens, UniProt P00374)", "T1 construct": "expressed in transfected cells; host or cells: HEK293", "T1 sequence (P00374 1-187)": "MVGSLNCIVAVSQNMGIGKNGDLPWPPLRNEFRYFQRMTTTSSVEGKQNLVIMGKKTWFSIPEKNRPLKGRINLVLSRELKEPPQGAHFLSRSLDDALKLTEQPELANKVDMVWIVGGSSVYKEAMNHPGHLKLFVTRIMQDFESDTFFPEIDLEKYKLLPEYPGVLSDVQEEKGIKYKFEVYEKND", "assay": "Pull-down of NanoLuc-DHFR fusion from living HEK293 cells onto HaloTag protein beads", "type": "cell-based", "conditions": "HEK293, 10 uM conjugate, 2 h; beads 45 min; release with 150 μM methotrexate", "procedure": "HEK293 cells were plated and transfected using PEI with plasmid DNA encoding a NANOLUC-DHFR fusion in wells of a 96-well plate. The DNA was diluted 1:50 with a promoterless carrier DNA plasmid (pCI) to a final concentration of 80 ng total DNA per well. Twenty-four hours post-transfection, cells were serum starved for additional 24 hours and then treated with […] 10 uM PBI-4848 or PBI-5015 while control cells were not treated with the conjugated drug. Following equilibration binding of 2 h, the media was removed, and the cells quickly washed with PBS and lysed in detergent-based lysis buffer for 10 min. Cell lysates were then transferred to wells of a 96-well plate containing 0.5 μl settled paramagnetic HALOTAG protein beads and incubated with shaking for 45 min. Following binding, the unbound fraction was removed, the HALOTAG protein paramagnetic beads washed, 150 μM unconjugated methotrexate added, and the captured NANOLUC:DHFR specifically released from the beads by competition with the unconjugated methotrexate for 60 min. The released NANOLUC:DHFR (+PBI-5015 or +PBI-4848) and control samples were detected by NANOGLO luciferase detection reagent."}, "[4]": {"target": "T2, glucocorticoid receptor (GR) (Homo sapiens, UniProt P04150)", "T2 construct": "purchased Life Technology", "T2 sequence (P04150 1-777)": "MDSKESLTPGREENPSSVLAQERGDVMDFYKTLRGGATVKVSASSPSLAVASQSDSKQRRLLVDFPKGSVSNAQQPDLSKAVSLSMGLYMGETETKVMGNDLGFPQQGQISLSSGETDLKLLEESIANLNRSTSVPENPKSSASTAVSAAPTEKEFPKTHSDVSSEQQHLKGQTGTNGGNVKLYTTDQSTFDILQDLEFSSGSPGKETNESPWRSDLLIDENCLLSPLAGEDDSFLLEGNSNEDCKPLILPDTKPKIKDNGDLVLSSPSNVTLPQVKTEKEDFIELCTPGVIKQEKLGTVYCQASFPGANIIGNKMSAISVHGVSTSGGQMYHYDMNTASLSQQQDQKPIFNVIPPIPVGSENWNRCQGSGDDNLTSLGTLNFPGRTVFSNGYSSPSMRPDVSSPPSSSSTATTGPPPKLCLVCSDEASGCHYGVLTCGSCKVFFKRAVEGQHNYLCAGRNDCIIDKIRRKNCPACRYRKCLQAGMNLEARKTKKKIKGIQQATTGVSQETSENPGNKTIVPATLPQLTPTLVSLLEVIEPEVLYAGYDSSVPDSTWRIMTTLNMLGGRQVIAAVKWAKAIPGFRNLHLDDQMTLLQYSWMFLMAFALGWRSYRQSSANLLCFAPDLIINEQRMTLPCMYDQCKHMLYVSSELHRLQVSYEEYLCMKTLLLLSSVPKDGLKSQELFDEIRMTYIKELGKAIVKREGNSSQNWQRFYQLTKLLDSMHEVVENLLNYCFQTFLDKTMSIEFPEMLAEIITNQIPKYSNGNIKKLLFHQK", "assay": "Glucocorticoid receptor competitor assay (fluorescence polarization, Life Technology)", "type": "binding", "conditions": "dexamethasone-chloroalkane conjugates (carbamate linker = PBI-4980)", "from_the_text": "c) Binding efficiency to the target glucocorticoid receptor (GR) was done using the glucocorticoid receptor competitor assay (Life Technology) as recommended by the manufacturer."}, "NanoLuc:GR fusion": {"target": "T3, NanoLuc:GR fusion (Homo sapiens, UniProt P04150)", "T3 construct": "expressed in transfected cells; host or cells: HEK293", "T3 sequence (P04150 1-777)": "T2 sequence (P04150 1-777)", "assay": "Pull-down of NanoLuc:GR fusion from live HEK293 cells onto HaloTag protein beads", "type": "cell-based", "conditions": "HEK293, 10 μM conjugate, 2 h; beads 45 min; release with 150 μM dexamethasone; PBI-4980 compared with PBI-4025", "procedure": "HEK293 cells were plated and transfected using PEI with plasmid DNA encoding NanoLuc:GR fusion in wells of a 96-well plate. The DNA was diluted 1:50 with a promoterless carrier DNA plasmid (pCI neo) to a final concentration of 80 ng total DNA per well. Twenty-four hours post-transfection, cells were serum starved for additional 24 hours then incubated with a final concentration of 10 μM PBI-4980 or PBI-4025 while control cells were not treated with the conjugated drug. Following equilibration binding of 2 h, the media was removed, cells quickly washed with PBS and lysed in detergent-based lysis buffer for 10 min. Cell lysates were than transferred to wells of a 96-well plate containing 0.5 μl settled paramagnetic HaloTag® protein beads and incubated with shaking for 45 min. Following binding the unbound fraction was removed, the HaloTag® protein paramagnetic beads were washed 3×, and the captured NanoLuc fusion was specifically released from the beads by competition with 150 μM unconjugated Dexamethasone for 60 min. The released NanoLuc:GR (+PBI-4980 or +PBI-4025) and control samples were detected by using the NanoGlo® assay reagent (Promega Corp)."}, "[5]": {"conditions": "methotrexate-chloroalkane conjugates, 0-120 min (O4 = PBI-4849, O6 = PBI-4850)"}}, "note": "“Also recorded” adds a separate entry of the source.", "data": [{"smiles": "CC(C)(C)c1cc(NC(=O)Nc2ccccc2)n(-c2cccc(CNC(=O)CNC(=O)CCC(=O)NCCOCCOCCCCCCCl)c2)n1", "note": "[PBI-4832, BIRB* O2 Chloroalkane]", "values": [{"measurement": "binding kinetics to HaloTag protein in cell lysate", "setting": "HaloTag® protein [1]; modified BIRB796-chloroalkane conjugates, 0-60 min", "result": "fast binding kinetics"}]}, {"smiles": "CN(Cc1cnc2nc(N)nc(N)c2n1)c1ccc(C(=O)NC(CCC(=O)NCCCCCNC(=O)OCCOCCOCCOC(=O)NCCOCCOCCCCCCCl)C(=O)O)cc1", "note": "(stereo not shown) [PBI-5015, Methotrexate Carbamate Chloroalkane]", "values": [{"measurement": "binding efficiency / labeling kinetics to HaloTag protein in lysate", "setting": "HaloTag® protein [1]", "result": "fast labeling kinetics"}, {"measurement": "cell permeability/binding efficiency to HaloTag protein in cells", "setting": "HaloTag® protein [2]; [5]", "result": "good cell permeability and binding efficiency; also recorded: best cell permeability and binding efficiency"}, {"measurement": "pull-down of Nluc:DHFR fusion from living cells", "setting": "[3]", "result": "efficiently pulled down"}]}, {"smiles": "CN(Cc1cnc2nc(N)nc(N)c2n1)c1ccc(C(=O)NC(CCC(=O)NCCOCCOCCCCCCCl)C(=O)O)cc1", "note": "(stereo not shown) [PBI-4848, Methotrexate-O2 Chloroalkane]", "values": [{"measurement": "binding efficiency / labeling kinetics to HaloTag protein in lysate", "setting": "HaloTag® protein [1]", "result": "fast labeling kinetics"}, {"measurement": "cell permeability/binding efficiency to HaloTag protein in cells", "setting": "HaloTag® protein [2]; [5]", "result": "best cell permeability and binding efficiency; also recorded: higher cell permeability"}]}, {"smiles": "C[C@@H]1CC2[C@@H]3CCC4=CC(=O)C=C[C@]4(C)[C@@]3(F)[C@@H](O)C[C@]2(C)[C@@]1(O)C(=O)NCCCCCNC(=O)OCCOCCOCCOC(=O)NCCOCCOCCCCCCCl", "note": "(stereo partly shown) [PBI-4980, Dexamethasone Carbamate Chloroalkane]", "values": [{"measurement": "binding kinetics to HaloTag protein in lysate", "setting": "HaloTag® protein [1]; dexamethasone-chloroalkane conjugates, 0-60 min", "result": "faster binding kinetics"}, {"measurement": "cell permeability/binding efficiency to HaloTag protein in cells", "setting": "HaloTag® protein [2]; dexamethasone-chloroalkane conjugates, 0-60 min (O4 = PBI-4026, O6 = PBI-4025)", "result": "best cell permeability/binding efficiency"}, {"measurement": "affinity / binding efficiency to glucocorticoid receptor", "setting": "[4]", "result": "best binding efficiency"}, {"measurement": "affinity / binding efficiency to glucocorticoid receptor", "setting": "[4]; listed as carbamate linker", "result": "highest affinity"}, {"measurement": "efficiency of Nluc:GR fusion pull down", "setting": "NanoLuc:GR fusion", "result": "significantly higher"}]}, {"smiles": "Cc1nc(Nc2ncc(C(=O)Nc3c(C)cccc3Cl)s2)cc(N2CCN(CCOC(=O)NCCOCCOCCCCCCCl)CC2)n1", "note": "[PBI-5590, Dasatinib Monocarbamate]", "values": [{"measurement": "binding kinetics to HaloTag protein in cell lysate", "setting": "HaloTag® protein [1]; dasatinib-chloroalkane conjugates, 0-60 min, compared with PBI-5270", "result": "faster binding kinetics"}]}, {"smiles": "C[C@@H]1CC2[C@@H]3CCC4=CC(=O)C=C[C@]4(C)[C@@]3(F)[C@@H](O)C[C@]2(C)[C@@]1(O)C(=O)NCCOCCOCCOCCOCCC(=O)NCCOCCOCCCCCCCl", "note": "(stereo partly shown) [PBI-4025]", "values": [{"measurement": "affinity / binding efficiency to glucocorticoid receptor", "setting": "[4]", "result": "highest affinity; also recorded: best binding efficiency; also recorded: higher affinity"}]}]}
